Measurements from ChEMBL document CHEMBL6083219, “Rationally designed febuxostat-based hydroxamic acid and its pH-Responsive nanoformulation elicits anti-tumor activity” (Eur J Med Chem, 2024).
Calls of active or inactive are those of the source.

How the values were obtained:
HL-60 [1] = format: functional, cell-based; settings: Homo sapiens, HL-60, 48 h
HL-60 [2] = experiment: Downregulation of HDAC2 expression level in human HL-60 cells at 0.5 to 2 uM by Western blotting analysis; format: functional, cell-based; settings: dose 0.5-2 µM
HL-60 [3] = experiment: Downregulation of HDAC3 expression level in human HL-60 cells at 0.5 to 2 uM by Western blotting analysis; format: functional, cell-based; settings: dose 0.5-2 µM
HL-60 [4] = experiment: Downregulation of HDAC6 expression level in human HL-60 cells at 0.5 to 2 uM by Western blotting analysis; format: functional, cell-based; settings: dose 0.5-2 µM
MDA-MB-231 [5] = experiment: Downregulation of HDAC1 expression level in human MDA-MB-231 cells at 0.5 to 2 uM by Western blotting analysis; format: functional, cell-based; settings: dose 0.5-2 µM
MDA-MB-231 [6] = experiment: Downregulation of HDAC2 expression level in human MDA-MB-231 cells at 0.5 to 2 uM by Western blotting analysis; format: functional, cell-based; settings: dose 0.5-2 µM
MDA-MB-231 [7] = experiment: Downregulation of HDAC3 expression level in human MDA-MB-231 cells at 0.5 to 2 uM by Western blotting analysis; format: functional, cell-based; settings: dose 0.5-2 µM
MDA-MB-231 [8] = experiment: Downregulation of HDAC6 expression level in human MDA-MB-231 cells at 0.5 to 2 uM by Western blotting analysis; format: functional, cell-based; settings: dose 0.5-2 µM
HL-60 [9] = experiment: Upregulation of acetylated histone H3 level in human HL-60 cells by Western blotting analysis; format: functional, cell-based; settings: dose 0.5-2 µM
MDA-MB-231 [10] = experiment: Upregulation of acetylated histone H3 level in human MDA-MB-231 cells by Western blotting analysis; format: functional, cell-based; settings: dose 0.5-2 µM
MDA-MB-231 [11] = experiment: Upregulation of acetylated tubulin level in human MDA-MB-231 cells by Western blotting analysis; format: functional, cell-based; settings: dose 0.5-2 µM
HL-60 [12] = experiment: Downregulation of mTOR expression level in human HL-60 cells at 0.5 to 2 uM by Western blotting analysis; format: functional, cell-based; settings: dose 0.5-2 µM
HL-60 [13] = experiment: Upregulation of cleaved caspase-3 expression level in human HL-60 cells at 0.5 to 2 uM by Western blotting analysis; format: functional, cell-based; settings: dose 0.5-2 µM
HL-60 [14] = experiment: Induction of apoptosis in human HL-60 cells assessed as morphological changes at 0.5 to 2 uM by DAPI staining based microscopic analysis; format: functional, cell-based; settings: dose 0.5-2 µM
Mitochondrial membrane = experiment: Induction of mitochondrial membrane potential loss in human HL-60 cells at 0.5 to 2 uM by rhodamine 123 staining based flow cytometry analysis; settings: dose 0.5-2 µM
HL-60 [15] = experiment: Induction of autophagy in human HL-60 cells assessed as upregulation of LC3-II expression level at 0.5 to 2 uM by Western blotting assay; format: functional, cell-based; settings: dose 0.5-2 µM
MDA-MB-231 [16] = experiment: Induction of apoptosis in human MDA-MB-231 cells assessed as cell death at sub-G1 phase at 0.5 to 1 uM incubated for 48 hrs; format: functional, cell-based; settings: dose 0.5-1 µM
MDA-MB-231 [17] = experiment: Induction of autophagy in human MDA-MB-231 cells assessed as upregulation of LC3-II expression level at 1 to 4 uM by Western blotting assay; format: functional, cell-based; settings: dose 1-4 µM
HL-60 [18] = experiment: Antitumor activity against human HL-60 cells xenografted in ip dosed BALB/c nude mouse model assessed as reduction in tumor volume and measured twice a week for 22 days; format: functional, organism-based; settings: dose 50-100 mg/kg, time 22.0 day
Rattus norvegicus [19] = experiment: Anti-hyperuricemic activity against potassium oxonate-induced hyperuricemia Wistar rat model assessed as decrease in serum uric acid level at 2.5 mg/kg measured after 14 days; format: functional, organism-based; settings: time 14.0 day
Rattus norvegicus [20] = experiment: Anti-hyperuricemic activity against potassium oxonate-induced hyperuricemia Wistar rat model assessed as decrease in serum uric acid level at 10 mg/kg measured after 14 days; format: functional, organism-based; settings: time 14.0 day
Rattus norvegicus [21] = experiment: Anti-hyperuricemic activity against potassium oxonate-induced hyperuricemia Wistar rat model assessed as decrease in serum creatinine level at 5 to 10 mg/kg measured after 14 days; format: functional, organism-based; settings: dose 5-10 mg/kg, time 14.0 day
Rattus norvegicus [22] = experiment: Anti-hyperuricemic activity against potassium oxonate-induced hyperuricemia Wistar rat model assessed as decrease in blood urea level at 5 to 10 mg/kg measured after 14 days; format: functional, organism-based; settings: dose 5-10 mg/kg, time 14.0 day
Rattus norvegicus [23] = experiment: Anti-hyperuricemic activity against potassium oxonate-induced hyperuricemia Wistar rat model assessed as decrease in blood urea level at 2.5 mg/kg measured after 14 days; format: functional, organism-based; settings: time 14.0 day
Rattus norvegicus [24] = experiment: Anti-hyperuricemic activity against potassium oxonate-induced hyperuricemia Wistar rat model assessed as effect on complete blood count at 2.5 mg/kg measured after 14 days; format: functional, organism-based; settings: time 14.0 day
Rattus norvegicus [25] = experiment: Anti-hyperuricemic activity against potassium oxonate-induced hyperuricemia Wistar rat model assessed as decrease in number of eosinophils at 5 mg/kg measured after 14 days; format: functional, organism-based; settings: time 14.0 day
Rattus norvegicus [26] = experiment: Anti-hyperuricemic activity against potassium oxonate-induced hyperuricemia Wistar rat model assessed as increase in neutrophils at 5 mg/kg measured after 14 days; format: functional, organism-based; settings: time 14.0 day
Rattus norvegicus [27] = experiment: Anti-hyperuricemic activity against potassium oxonate-induced hyperuricemia Wistar rat model assessed as increase in lymphocytes at 5 mg/kg measured after 14 days; format: functional, organism-based; settings: time 14.0 day
Rattus norvegicus [28] = experiment: Anti-hyperuricemic activity against potassium oxonate-induced hyperuricemia Wistar rat model assessed as increase in monocytes at 5 mg/kg measured after 14 days; format: functional, organism-based; settings: time 14.0 day
Rattus norvegicus [29] = experiment: Anti-hyperuricemic activity against potassium oxonate-induced hyperuricemia Wistar rat model assessed as increase in RBC at 5 mg/kg measured after 14 days; format: functional, organism-based; settings: time 14.0 day
Rattus norvegicus [30] = experiment: Anti-hyperuricemic activity against potassium oxonate-induced hyperuricemia Wistar rat model assessed as increase in hemoglobin levels at 5 mg/kg measured after 14 days; format: functional, organism-based; settings: time 14.0 day
Rattus norvegicus [31] = experiment: Anti-hyperuricemic activity against potassium oxonate-induced hyperuricemia Wistar rat model assessed as enhancement in complete blood count at 10 mg/kg measured after 14 days; format: functional, organism-based; settings: time 14.0 day
Rattus norvegicus [32] = experiment: Anti-hyperuricemic activity against potassium oxonate-induced hyperuricemia Wistar rat model assessed as improvement in renal condition at 2.5 mg/kg measured after 14 days by H and E staining based assay; format: functional, organism-based; settings: time 14.0 day
Rattus norvegicus [33] = experiment: Anti-hyperuricemic activity against potassium oxonate-induced hyperuricemia Wistar rat model assessed as improvement in renal condition at 5 mg/kg by measuring decrease in enlargement of tubular cells measured after 14 days by H and E staining based assay; format: functional, organism-based; settings: time 14.0 day
Rattus norvegicus [34] = experiment: Anti-hyperuricemic activity against potassium oxonate-induced hyperuricemia Wistar rat model assessed as improvement in renal condition by measuring decrease in tubular cell necrosis at 10 mg/kg measured after 14 days by H and E staining based assay; format: functional, organism-based; settings: time 14.0 day
Rattus norvegicus [35] = experiment: Anti-hyperuricemic activity against potassium oxonate-induced hyperuricemia Wistar rat model assessed as improvement in renal condition by measuring normal glomeruli appearance at 10 mg/kg measured after 14 days by H and E staining based assay; format: functional, organism-based; settings: time 14.0 day
Rattus norvegicus [36] = experiment: Anti-hyperuricemic activity against potassium oxonate-induced hyperuricemia Wistar rat model assessed as improvement in renal condition by measuring normal glomeruli size at 10 mg/kg measured after 14 days by H and E staining based assay; format: functional, organism-based; settings: time 14.0 day
Rattus norvegicus [37] = experiment: Anti-hyperuricemic activity against potassium oxonate-induced hyperuricemia Wistar rat model assessed as reduction in DCT expansion at 10 mg/kg measured after 14 days by H and E staining based assay; format: functional, organism-based; settings: time 14.0 day
HL-60 [38] = experiment: Cytotoxicity against human HL-60 cells incubated for 1 day by MTT assay; format: functional, cell-based; settings: HL-60, 24 h
HH = experiment: Cytotoxicity against human HH cells incubated for 1 day by MTT assay; format: functional, cell-based; settings: 24 h
K562 = experiment: Cytotoxicity against human K562 cells incubated for 1 day by MTT assay; format: functional, cell-based; settings: K562, 24 h
[39] = Cytotoxicity against mouse L929 cells incubated for 1 day by MTT assay; format: toxicity, cell-based
MDA-MB-231 [40] = experiment: cells; settings: Homo sapiens, MDA-MB-231, 48 h
Description: Cytotoxicity against human MDA-MB-231 cells incubated for 48 hrs by MTT assay

Cc1nc(-c2ccc(OCC(C)C)c(C#N)c2)sc1C(=O)NCCCCCCC(=O)NO
1210 nM: IC50 (K562)
1090 nM: IC50 (HH)
active: Activity (MDA-MB-231 [5]) | Activity (MDA-MB-231 [6]) | Activity (MDA-MB-231 [7]) | Activity (MDA-MB-231 [8]) | Activity (HL-60 [9]) Dose-dependent-effect | Activity (MDA-MB-231 [10]) Dose-dependent-effect | Activity (MDA-MB-231 [11]) Dose-dependent-effect | Activity (HL-60 [12]) | Activity (HL-60 [13]) | Activity (HL-60 [14]) | Activity (Mitochondrial membrane) | Activity (HL-60 [15]) | Activity (MDA-MB-231 [16]) | Activity (MDA-MB-231 [17]) | Activity (HL-60 [18]) Dose-dependent-effect | Activity (Rattus norvegicus [20]) | Activity (Rattus norvegicus [21]) | Activity (Rattus norvegicus [22]) | Activity (Rattus norvegicus [25]) | Activity (Rattus norvegicus [26]) | Activity (Rattus norvegicus [27]) | Activity (Rattus norvegicus [28]) | Activity (Rattus norvegicus [29]) | Activity (Rattus norvegicus [30]) | Activity (Rattus norvegicus [31]) | Activity (Rattus norvegicus [33]) | Activity (Rattus norvegicus [34]) | Activity (Rattus norvegicus [35]) | Activity (Rattus norvegicus [36]) | Activity (Rattus norvegicus [37])
inactive: Activity (Rattus norvegicus [19]) | Activity (Rattus norvegicus [23]) | Activity (Rattus norvegicus [24]) | Activity (Rattus norvegicus [32])
2940 nM: IC50 (MDA-MB-231 [40])
706 nM: IC50 (HL-60 [1]) | IC50 (HL-60 [38])
2230 nM: IC50 at 1 day [39]
Active; Activity More Potent Than Saha: Activity (HL-60 [2]) | Activity (HL-60 [3]) | Activity (HL-60 [4])
